Laboratory results published in patent US20250122191A1, “COMPOUNDS AS BCL-2 INHIBITORS” (Fochon Biosciences, Ltd, priority 2021, published 2025).

What was measured:
Toledo cells = experiment: Cell proliferation assay (MTS), Toledo cells; format: cell-based; details: Homo sapiens, 72 h
Experimental: MTS testing kit was purchased from Promega (Madison, WI, USA). The RPMI-1640, Fetal bovine serum and Penicillin-Streptomycin were purchased from BI (Biological Industries, Beit Haemek, Israel). Dimethyl sulfoxide (DMSO) was purchased from Sigma (St. Louis., MO, USA). Toledo (ATCC catalog #: CRL-2631) cells were cultured in RPMI-1640 supplemented with Penicillin-Streptomycin and 10% FBS.
To investigate whether a compound is able to inhibit the activity of BCL-2 in cells, a mechanism-based assay using Toledo lines was developed. In this assay, the inhibition of BCL-2 was reflected by the inhibition of cell proliferation of Toledo cells. Cells were plated into 96-well plates at the optimized cell density of 30000 cells/well. Plates were incubated at 37° C., with 5% CO2 for 4 h. Compounds were serially diluted and added to the plates with the final concentrations of 10000, 3333.3, 1111.1, 370.4, 123.5, 41.2, 13.7, 4.6 and 1.5 nM. Plates were incubated at 37° C., with 5% CO2 for 72 h. 20 μl MTS was added into each well and the plates were incubated at 37° C., with 5% CO2 for exactly 2 h. The absorbance was measured by a microplate reader at 490 nm. IC50 was calculated using GraphPad Prism 5.0 software.

RS4;11-BCL-2 G101V cells = experiment: Cell proliferation assay (MTS), RS4;11-BCL-2 G101V engineered cells; format: cell-based; details: Homo sapiens, 120 h, read-out: RS4, 11 BCL2-G101V IC50
From the text: MTS testing kit was purchased from Promega (Madison, WI, USA). The RPMI-1640, Fetal bovine serum and Penicillin-Streptomycin were purchased from BI (Biological Industries, Beit Haemek, Israel). Puromycin was purchased from Beyotime (shanghai, China). Dimethyl sulfoxide (DMSO) was purchased from Sigma (St. Louis., MO, USA). RS4;11-BCL-2 G101V (Cobioer Lot. #: CBD2021063013P4), RS4;11-BCL-2 D103E (Cobioer Lot. #: CBD2021063013P4), RS4;11-BCL-2 D103Y (Cobioer Lot. #: CBD2022012101P4) and RS4;11-BCL-2 F104L (Cobioer Lot. #: CBD2021063014P4) cells were cultured in RPMI1640 supplemented with 1 ug/mL puromycin, 100 U/mL Penicillin-Streptomycin and 10% FBS.
To investigate whether a compound is able to inhibit the activity of BCL-2 mutation in cells, a mechanism-based assay using engineered cell lines stably overexpressing BCL-2 mutation (RS4;11-BCL-2 G101V, RS4;11-BCL-2 D103E, RS4;11-BCL-2 D103Y, and RS4;11-BCL-2 F104L) was developed. In this assay, the inhibition of BCL-2 mutation was reflected by the inhibition of cell proliferation of engineered RS4;11 cells. Cells were plated into 96-well plates at optimized cell density (RS4;11-BCL-2 G101V: 5000 cells/well; RS4;11-BCL-2 D103E: 7500 cells/well; RS4;11-BCL-2 D103Y: 7500 cells/well; RS4;11-BCL-2 F104L: 5000 cells/well). Plates were incubated at 37° C., with 5% CO2 for 4 h (RS4;11-BCL-2 G101V, RS4;11-BCL-2 F104L) and 24 h (RS4;11-BCL-2 D103E, RS4;11-BCL-2 D103Y), respectively. Compounds were serially diluted and added to the plates with the final concentrations of 10000, 3333.3, 1111.1, 370.4, 123.5, 41.2, 13.7, 4.6 and 1.5 nM. Plates were incubated at 37° C., with 5% CO2 for 120 h (RS4; 11-BCL-2 G101V, RS4; 11-BCL-2 F104L) and 72 h (RS4;11-BCL-2 D103E, RS4;11-BCL-2 D103Y), respectively. 20 μl MTS was added into each well and the plates were incubated at 37° C., with 5% CO2 exactly for 2 h. The absorbance was measured by a microplate reader at 490 nm. IC50 values were calculated using GraphPad Prism 8.0 software.

CC(C)c1ccccc1[C@@H]1CN(Cc2ccc(F)c(F)c2)CCN1C1CC2(CCN(c3ccc(C(=O)NS(=O)(=O)c4cnc(NC[C@H]5CC[C@](C)(O)CC5)c([N+](=O)[O-])c4)c(Oc4cnc5[nH]cc(F)c5c4)c3)CC2)C1 [Example 72, 4-(2-((R)-4-(3,4-difluorobenzyl)-2-(2-isopropylphenyl)piperazin-1-yl)-7-azaspiro[3.5]nonan-7-yl)-2-((3-fluoro-1H-pyrrolo[2,3-b]pyridin-5-yl)oxy)-N-((6-((((1r,4r)-4-hydroxy-4-methylcyclohexyl)methyl)amino)-5-nitropyridin-3-yl)sulfonyl)benzamide]
IC50 (Toledo cells): 1 nM | IC50 (RS4;11-BCL-2 G101V cells): 1 nM

COc1nc2[nH]cc(F)c2cc1Oc1cc(N2CCC3(CC2)CC(N2CCN(Cc4cc(F)c(OC)c(F)c4)C[C@H]2c2ccccc2C(C)C)C3)ccc1C(=O)NS(=O)(=O)c1cnc(NC[C@H]2CC[C@](C)(O)CC2)c([N+](=O)[O-])c1 [Example 107, 4-(2-((R)-4-(3,5-difluoro-4-methoxybenzyl)-2-(2-isopropylphenyl)piperazin-1-yl)-7-azaspiro[3.5]nonan-7-yl)-2-((3-fluoro-6-methoxy-1H-pyrrolo[2,3-b]pyridin-5-yl)oxy)-N-((6-((((1r,4r)-4-hydroxy-4-methylcyclohexyl)methyl)amino)-5-nitropyridin-3-yl)sulfonyl)benzamide]
IC50 (Toledo cells): 1 nM | IC50 (RS4;11-BCL-2 G101V cells): 1 nM

CCOc1nc2[nH]cc(F)c2cc1Oc1cc(N2CCC3(CC2)CC(N2CCN(CCOC)C[C@H]2c2ccccc2C(C)C)C3)ccc1C(=O)NS(=O)(=O)c1cnc(NC[C@H]2CC[C@](C)(O)CC2)c([N+](=O)[O-])c1 [Example 130, 2-((6-ethoxy-3-fluoro-1H-pyrrolo[2,3-b]pyridin-5-yl)oxy)-N-((6-((((1r,4r)-4-hydroxy-4-methylcyclohexyl)methyl)amino)-5-nitropyridin-3-yl)sulfonyl)-4-(2-((R)-2-(2-isopropylphenyl)-4-(2-methoxyethyl)piperazin-1-yl)-7-azaspiro[3.5]nonan-7-yl)benzamide]
IC50 (Toledo cells): 1 nM | IC50 (RS4;11-BCL-2 G101V cells): 1 nM

CCOc1nc2[nH]cc(F)c2cc1Oc1cc(N2CCC3(CC2)CC(N2CCN(C4COC4)C[C@H]2c2ccccc2C(C)C)C3)ccc1C(=O)NS(=O)(=O)c1cnc(NC[C@H]2CC[C@](C)(O)CC2)c([N+](=O)[O-])c1 [Example 132, 2-((6-ethoxy-3-fluoro-1H-pyrrolo[2,3-b]pyridin-5-yl)oxy)-N-((6-((((1r,4r)-4-hydroxy-4-methylcyclohexyl)methyl)amino)-5-nitropyridin-3-yl)sulfonyl)-4-(2-((R)-2-(2-isopropylphenyl)-4-(oxetan-3-yl)piperazin-1-yl)-7-azaspiro[3.5]nonan-7-yl)benzamide]
IC50 (Toledo cells): 1 nM | IC50 (RS4;11-BCL-2 G101V cells): 1 nM

CCOc1nc2[nH]cc(F)c2cc1Oc1cc(N2CCC3(CC2)CC(N2CCN(Cc4cnn(C5CC5)c4)C[C@H]2c2ccccc2C(C)C)C3)ccc1C(=O)NS(=O)(=O)c1cnc(NC[C@H]2CC[C@](C)(O)CC2)c([N+](=O)[O-])c1 [Example 134, 4-(2-((R)-4-((1-cyclopropyl-1H-pyrazol-4-yl)methyl)-2-(2-isopropylphenyl)piperazin-1-yl)-7-azaspiro[3.5]nonan-7-yl)-2-((6-ethoxy-3-fluoro-1H-pyrrolo[2,3-b]pyridin-5-yl)oxy)-N-((6-((((1r,4r)-4-hydroxy-4-methylcyclohexyl)methyl)amino)-5-nitropyridin-3-yl)sulfonyl)benzamide]
IC50 (Toledo cells): 1 nM | IC50 (RS4;11-BCL-2 G101V cells): 1 nM

CCOc1nc2[nH]cc(F)c2cc1Oc1cc(N2CCC3(CC2)CC(N2CCN(C)C[C@H]2c2ccccc2C(C)C)C3)ccc1C(=O)NS(=O)(=O)c1cnc(NC[C@H]2CC[C@](C)(O)CC2)c([N+](=O)[O-])c1 [Example 138, 2-((6-ethoxy-3-fluoro-1H-pyrrolo[2,3-b]pyridin-5-yl)oxy)-N-((6-((((1r,4r)-4-hydroxy-4-methylcyclohexyl)methyl)amino)-5-nitropyridin-3-yl)sulfonyl)-4-(2-((R)-2-(2-isopropylphenyl)-4-methylpiperazin-1-yl)-7-azaspiro[3.5]nonan-7-yl)benzamide]
IC50 (Toledo cells): 1 nM | IC50 (RS4;11-BCL-2 G101V cells): 1 nM

COc1ccc(CN2CCN(C3CC4(CCN(c5ccc(C(=O)NS(=O)(=O)c6cnc(NC[C@H]7CC[C@](C)(O)CC7)c([N+](=O)[O-])c6)c(Oc6cnc7[nH]cc(F)c7c6)c5)CC4)C3)[C@H](c3ccccc3C(C)C)C2)cc1F [Example 201, 2-((3-fluoro-1H-pyrrolo[2,3-b]pyridin-5-yl)oxy)-4-(2-((R)-4-(3-fluoro-4-methoxybenzyl)-2-(2-isopropylphenyl)piperazin-1-yl)-7-azaspiro [3.5]nonan-7-yl)-N-((6-((((1r,4r)-4-hydroxy-4-methylcyclohexyl)methyl)amino)-5-nitropyridin-3-yl)sulfonyl)benzamide]
IC50 (Toledo cells): 1 nM | IC50 (RS4;11-BCL-2 G101V cells): 1 nM

CCOc1nc2[nH]cc(F)c2cc1Oc1cc(N2CCC3(CC2)CC(N2CCN(Cc4ccc(Cl)cc4)C[C@H]2c2ccccc2C(C)C)C3)ccc1C(=O)NS(=O)(=O)c1cnc(NC[C@H]2CC[C@](C)(O)CC2)c([N+](=O)[O-])c1 [Example 231, 4-(2-((R)-4-(4-chlorobenzyl)-2-(2-isopropylphenyl)piperazin-1-yl)-7-azaspiro[3.5]nonan-7-yl)-2-((6-ethoxy-3-fluoro-1H-pyrrolo[2,3-b]pyridin-5-yl)oxy)-N-((6-((((1r,4r)-4-hydroxy-4-methylcyclohexyl)methyl)amino)-5-nitropyridin-3-yl)sulfonyl)benzamide]
IC50 (Toledo cells): 1 nM | IC50 (RS4;11-BCL-2 G101V cells): 1 nM

CCOc1nc2[nH]cc(F)c2cc1Oc1cc(N2CCC3(CC2)CC(N2CCN(Cc4ccc(F)cc4)C[C@H]2c2ccccc2C(C)C)C3)ccc1C(=O)NS(=O)(=O)c1cnc(NC[C@H]2CC[C@](C)(O)CC2)c([N+](=O)[O-])c1 [Example 234, 2-((6-ethoxy-3-fluoro-1H-pyrrolo[2,3-b]pyridin-5-yl)oxy)-4-(2-((R)-4-(4-fluorobenzyl)-2-(2-isopropylphenyl)piperazin-1-yl)-7-azaspiro[3.5]nonan-7-yl)-N-((6-((((1r,4r)-4-hydroxy-4-methylcyclohexyl)methyl)amino)-5-nitropyridin-3-yl)sulfonyl)benzamide]
IC50 (Toledo cells): 1 nM | IC50 (RS4;11-BCL-2 G101V cells): 1 nM

CCOc1nc2[nH]cc(F)c2cc1Oc1cc(N2CCC3(CC2)CC(N2CCN(Cc4ccc(C#N)cc4)C[C@H]2c2ccccc2C(C)C)C3)ccc1C(=O)NS(=O)(=O)c1cnc(NC[C@H]2CC[C@](C)(O)CC2)c([N+](=O)[O-])c1 [Example 235, 4-(2-((R)-4-(4-cyanobenzyl)-2-(2-isopropylphenyl)piperazin-1-yl)-7-azaspiro[3.5]nonan-7-yl)-2-((6-ethoxy-3-fluoro-1H-pyrrolo [2,3-b]pyridin-5-yl)oxy)-N-((6-((((1r,4r)-4-hydroxy-4-methylcyclohexyl)methyl)amino)-5-nitropyridin-3-yl)sulfonyl)benzamide]
IC50 (Toledo cells): 1 nM | IC50 (RS4;11-BCL-2 G101V cells): 1 nM

CCOc1nc2[nH]cc(F)c2cc1Oc1cc(N2CCC3(CC2)CC(N2CCN(Cc4ccnc(OC)c4)C[C@H]2c2ccccc2C(C)C)C3)ccc1C(=O)NS(=O)(=O)c1cnc(NC[C@H]2CC[C@](C)(O)CC2)c([N+](=O)[O-])c1 [Example 241, 2-((6-ethoxy-3-fluoro-1H-pyrrolo[2,3-b]pyridin-5-yl)oxy)-N-((6-((((1r,4r)-4-hydroxy-4-methylcyclohexyl)methyl)amino)-5-nitropyridin-3-yl)sulfonyl)-4-(2-((R)-2-(2-isopropylphenyl)-4-((2-methoxypyridin-4-yl)methyl)piperazin-1-yl)-7-azaspiro[3.5]nonan-7-yl)benzamide]
IC50 (Toledo cells): 1 nM | IC50 (RS4;11-BCL-2 G101V cells): 1 nM
